Assay results taken from patent US20040029816A1, “Hepatoprotective activity of 10-O-P-hydroxybenzoyiaucubin” (priority 2002, published 2004).

Key:
[1] = tested on: CCl4 induced hepatic injury; test: Hepatoprotective activity (in vivo) against CCl4 induced hepatic injury in rats
Excerpt: Treatment of experimental animals with the 033 and 033(1) against CCU induced liver damage reduced the elevated levels of serum GPT, GOT, ALP, bilirubin, TG and hepatic lipid peroxidation and increased the GSH level.

[2] = tested on: GalN induced hepatic injury; test: Hepatoprotective activity (in vivo) against galactosamine (GalN) induced hepatic injury in rats
Excerpt: The hepatoprotective activity observed with 033 and 033(1) was 59.58 & 44.97, 56.62 & 44.05, 54.28 & 47.66, 57.71 & 66.66, 57.89 & 49.33 percent in serum GPT, GOT, Bilirubin, ALP, and TG respectively and 67.51 & 48.34, 66.56 & 55.13 percent in hepatic lipid peroxidation (LP) and GSH respectively. The same with silymarin was 57.38, 55.40, 60.00, 53.54,46.17, 69.59, 67.18 percent respectively (Table-2). [table]

[3] = liver homogenate, rats, fed p.o. at 48 h, 24 h, 2 h before and 6 h after CCl4 (1 ml/kg, p.o.), 033 400 mg/kg, 033 (1) and silymarin 50 mg/kg, mean of six animals
[4] = rats, fed p.o. at 48 h, 24 h, 2 h before and 6 h after CCl4 (1 ml/kg, p.o.), 033 400 mg/kg, 033 (1) and silymarin 50 mg/kg, mean of six animals
[5] = rats, fed p.o. at 48 h, 24 h, 2 h before and 6 h after CCl4 (1 ml/kg, p.o.), 033 400 mg/kg, 033 (1) and silymarin 50 mg/kg, mean of six animals, listed as 033(1)
[6] = liver, rats, fed p.o. at 48 h, 24 h, 2 h before and 6 h after GalN (300 mg/kg, s.c.), 033 400 mg/kg, 033 (1) and silymarin 50 mg/kg, mean of six animals
[7] = rats, fed p.o. at 48 h, 24 h, 2 h before and 6 h after GalN (300 mg/kg, s.c.), 033 400 mg/kg, 033 (1) and silymarin 50 mg/kg, mean of six animals

Structure (SMILES): O=C(OCC1=C[C@@H](O)[C@@H]2C=CO[C@@H](O[C@@H]3O[C@H](CO)[C@@H](O)[C@H](O)[C@H]3O)[C@H]12)c1ccc(O)cc1 [033 (1), 10-O-p-hydroxybenzoylaucubin]
- hepatoprotective activity (in words) ([1]; experimentally induced hepatic damage with CCl4 in rats): marked hepatoprotective activity
- Hepatoprotective activity, hepatic Glutathione (GSH) [1, 3]: 38.12%
- Hepatoprotective activity, hepatic Lipid peroxidation (LP) [1, 3]: 41.48%
- Hepatoprotective activity, serum ALP (table head: Al.F) [1, 4]: 60.2%
- Hepatoprotective activity, serum Bilirubin (table head: Bihrubin (mg %)) [1, 4]: 71.79%
- Hepatoprotective activity, serum GOT (Units) [1, 4]: 57.43%
- Hepatoprotective activity, serum GPT (table head: OPT (Units)) [1, 4]: 59.52%
- Hepatoprotective activity, serum Triglycerides (TG) [1, 4]: 38.53%
- Hepatoprotective activity, serum ALP (table head: Al.F) [1, 5]: 60.17%
- Hepatoprotective activity, serum GOT (Units) [1, 5]: 57.42%
- hepatoprotective activity (in words) ([2]; experimentally induced hepatic damage with galactosamine (GalN) in rats): marked hepatoprotective activity
- Hepatoprotective activity, hepatic Glutathione (GSH) [2, 6]: 55.13%
- Hepatoprotective activity, hepatic Lipid peroxidation (LP) [2, 6]: 48.34%
- Hepatoprotective activity, serum ALP [2, 7]: 66.66%
- Hepatoprotective activity, serum Bilirubin (mg %) [2, 7]: 47.66%
- Hepatoprotective activity, serum GOT (Units) [2, 7]: 44.05%
- Hepatoprotective activity, serum GPT (Units) [2, 7]: 44.97%
- Hepatoprotective activity, serum Triglycerides (mg %) [2, 7]: 49.33%
